How the values were obtained:
Surinam grass = assay: Test B pre-/postemergence herbicide test; assay type: in vivo, Urochloa decumbens
Method in brief: (§1)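 Seeds were planted and treated preemergence with compounds formulated in a non-phytotoxic solvent mixture containing surfactant, while plants at the 1- to 4-leaf stage (2 to 18 cm) received postemergence sprays. Flooded paddy plants were grown to the 2-leaf stage. After 13 to 15 days in a greenhouse, injury was visually rated 0–100 against untreated controls.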

large crabgrass [1] = assay: Test B pre-/postemergence herbicide test; assay type: in vivo, Digitaria sanguinalis
Method in brief: as §1

rice = assay: Test B pre-/postemergence herbicide test; assay type: in vivo, Oryza sativa; conditions: preemergence
Method in brief: as §1

cocklebur = assay: Test C pre-/postemergence herbicide test; assay type: in vivo, Xanthium strumarium
Method in brief: (§2)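 Visual ratings on a 0–100 scale (100 = complete control) made versus untreated controls after 12 to 14 greenhouse days. Test chemicals, formulated in surfactant-containing non-phytotoxic solvent, applied preemergence to planted seeds or postemergence to 1- to 4-leaf plants (2 to 18 cm).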

large crabgrass [2] = assay: Test C pre-/postemergence herbicide test; assay type: in vivo, Digitaria sanguinalis
Method in brief: as §2

johnsongrass = assay: Test C pre-/postemergence herbicide test; assay type: in vivo, Sorghum halepense
Method in brief: as §2

morningglory = assay: Test C pre-/postemergence herbicide test; assay type: in vivo, Ipomoea coccinea; parameters: key to Plant response rating, Morningglory: 0 = no effect, 100 = complete control
Method in brief: as §2

eastern black nightshade = assay: Test C pre-/postemergence herbicide test; assay type: in vivo, Solanum ptycanthum
Method in brief: as §2

yellow nutsedge = assay: Test C pre-/postemergence herbicide test; assay type: in vivo, Cyperus esculentus
Method in brief: as §2

barnyardgrass = assay: Test C flooded paddy test; assay type: in vivo, Echinochloa crus-galli
Method in brief: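 Visual rating, 0 (no effect) to 100 (complete control), vs. controls at 12–14 d in greenhouse. Postemergence: 1–4-leaf plants, 2–18 cm. Paddy: flooded, barnyardgrass at 2-leaf stage.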

[3] = 125 g ai/ha, 0 = no effect, 100 = complete control, preemergence
[4] = 500 g ai/ha, visual rating 0-100, 0 no effect, 100 complete control, preemergence
[5] = postemergence, 125 g ai/ha, visual rating, scale 0 (no effect) to 100 (complete control)
[6] = postemergence, 500 g ai/ha, visual rating, scale 0 (no effect) to 100 (complete control)
[7] = 62 g ai/ha, preemergence, scale 0 to 100
[8] = 125 g ai/ha, scale 0 (no effect) to 100 (complete control), visual, 12 to 14 days, preemergence
[9] = 250 g ai/ha, scale 0-100, preemergence
[10] = Preemergence, 500 g ai/ha, scale 0 to 100, 0 no effect, 100 complete control
[11] = 125 g ai/ha, 0 is no effect, 100 is complete control, preemergence
[12] = Postemergence, 500 g ai/ha, scale 0 (no effect) to 100 (complete control)
[13] = postemergence, 125 g ai/ha, scale 0 to 100
[14] = 500 g ai/ha, scale 0 to 100 (0 no effect, 100 complete control), visual, 12 to 14 days, preemergence

## CCN(CC)C(=O)c1cccc(NC(=O)c2sc(C(C)(C)C)nc2C)c1 [Compound 199]
Surinam grass; [3]
  Surinam Grass plant response rating (0 to 100 scale): 10
Surinam grass; [4]
  Plant response rating, Surinam Grass: 70
Surinam grass; [5]
  Surinam Grass plant response rating: 10
Surinam grass; [6]
  Surinam Grass plant response rating: 20
Large crabgrass [1]; [3]
  Crabgrass, Large plant response rating (0 to 100 scale): 90
Large crabgrass [1]; [4]
  Plant response rating, Crabgrass, Large: 100
Large crabgrass [1]; [5]
  Crabgrass, Large plant response rating: 10
Large crabgrass [1]; [6]
  Crabgrass, Large plant response rating: 10
rice; 125 g ai/ha, 0 = no effect, 100 = complete control
  Rice plant response rating (0 to 100 scale): 0
rice; 500 g ai/ha, visual rating 0-100, 0 no effect, 100 complete control
  Plant response rating, Rice: 20
cocklebur; [7]
  Plant response rating, Cocklebur: 0
cocklebur; [8]
  Plant response rating, Cocklebur: 0
cocklebur; [9]
  Plant response rating, Cocklebur: 0
cocklebur; [10]
  Cocklebur plant response rating: 0
Large crabgrass [2]; [7]
  Plant response rating, Crabgrass, Large: 10
Large crabgrass [2]; [8]
  Plant response rating, Crabgrass, Large: 90
Large crabgrass [2]; [9]
  Plant response rating, Crabgrass, Large: 90
Large crabgrass [2]; [10]
  Crabgrass, Large plant response rating: 95
johnsongrass; [7]
  Plant response rating, Johnsongrass: 0
johnsongrass; [8]
  Plant response rating, Johnsongrass: 30
johnsongrass; [9]
  Plant response rating, Johnsongrass: 60
johnsongrass; [10]
  Johnsongrass plant response rating: 90
morningglory; [8]
  Plant response rating, Morningglory: 50
morningglory; [9]
  Plant response rating, Morningglory: 70
morningglory; [10]
  Morningglory plant response rating: 70
Eastern black nightshade; [7]
  Plant response rating, Nightshade: 85
Eastern black nightshade; [8]
  Plant response rating, Nightshade: 95
Eastern black nightshade; [9]
  Plant response rating, Nightshade: 100
Eastern black nightshade; [10]
  Nightshade plant response rating: 100
Yellow nutsedge; [7]
  Plant response rating, Nutsedge, Yellow: 0
Yellow nutsedge; [8]
  Plant response rating, Nutsedge, Yellow: 0
Yellow nutsedge; [9]
  Plant response rating, Nutsedge, Yellow: 0
Yellow nutsedge; [10]
  Nutsedge, Yellow plant response rating: 0

## CCc1nn(C(C)C)nc1C(=O)Nc1cccc(C(=S)N(C)C)c1 [Compound 409]
Surinam grass; [11]
  Plant response rating (0 to 100 scale), Surinam Grass: 90
Surinam grass; [12]
  Surinam Grass plant response rating: 30
Surinam grass; [13]
  Surinam Grass plant response rating: 10
Large crabgrass [1]; [11]
  Plant response rating (0 to 100 scale), Crabgrass, Large: 90
Large crabgrass [1]; [12]
  Crabgrass, Large plant response rating: 10
Large crabgrass [1]; [13]
  Crabgrass, Large plant response rating: 0
cocklebur; [7]
  Plant response rating, Cocklebur: 0
cocklebur; 125 g ai/ha, preemergence
  Plant response rating (0 = no effect, 100 = complete control), Cocklebur: 30
cocklebur; [9]
  Plant response rating, Cocklebur: 70
cocklebur; [14]
  Plant response rating, Cocklebur: 80
Large crabgrass [2]; [7]
  Plant response rating, Crabgrass, Large: 85
Large crabgrass [2]; 125 g ai/ha, preemergence
  Plant response rating (0 = no effect, 100 = complete control), Crabgrass, Large: 95
Large crabgrass [2]; [9]
  Plant response rating, Crabgrass, Large: 95
Large crabgrass [2]; [14]
  Plant response rating, Crabgrass, Large: 95
johnsongrass; [7]
  Plant response rating, Johnsongrass: 35
johnsongrass; 125 g ai/ha, preemergence
  Plant response rating (0 = no effect, 100 = complete control), Johnsongrass: 80
johnsongrass; [9]
  Plant response rating, Johnsongrass: 95
johnsongrass; [14]
  Plant response rating, Johnsongrass: 95
morningglory; [7]
  Plant response rating, Morningglory: 10
morningglory; 125 g ai/ha, preemergence
  Plant response rating (0 = no effect, 100 = complete control), Morningglory: 40
morningglory; [14]
  Plant response rating, Morningglory: 100
Eastern black nightshade; [7]
  Plant response rating, Nightshade: 45
Eastern black nightshade; 125 g ai/ha, preemergence
  Plant response rating (0 = no effect, 100 = complete control), Nightshade: 85
Eastern black nightshade; [14]
  Plant response rating, Nightshade: 95
Yellow nutsedge; [7]
  Plant response rating, Nutsedge, Yellow: 0
Yellow nutsedge; 125 g ai/ha, preemergence
  Plant response rating (0 = no effect, 100 = complete control), Nutsedge, Yellow: 0
Yellow nutsedge; [14]
  Plant response rating, Nutsedge, Yellow: 55
barnyardgrass; 62 g ai/ha, scale 0 to 100 (0 no effect, 100 complete control)
  Barnyardgrass plant response rating: 20
barnyardgrass; 125 g ai/ha, scale 0 to 100 (0 no effect, 100 complete control)
  Barnyardgrass plant response rating: 20
barnyardgrass; 250 g ai/ha, scale of 0 to 100, 0 is no effect, 100 is complete control
  Barnyardgrass plant response rating: 40
barnyardgrass; 500 g ai/ha, visual rating after 12 to 14 days, scale 0 to 100 (0 no effect, 100 complete control)
  Plant response rating, Barnyardgrass: 60

— patent US20060069132A1, “Azolecarboxamide herbicides” (priority 2004, published 2006)
